Results from publication PMC11099041, “Tissue distribution and retention drives efficacy of rapidly clearing VHL-based PROTACs” (Communications Medicine, 2024).

Assays:
[1] = Protein binding by equilibrium dialysis (plasma, tissue homogenates, DPBS); assay type: in vitro ADME, rat
Method: Control plasma was purchased from BioIVT, Hicksville, New York. Pooled plasma was obtained from at least three rats with K2EDTA as the anticoagulant. Control plasma was used to test the suitability of the system and for positive control analysis. Dulbecco’s phosphate-buffered saline (DPBS) (Millipore Sigma, St Louis, Missouri) was used to test the suitability of the system and as the receiver side of the dialysis device. […] The stock solution was added to the matrix (plasma or DPBS) and swirled to mix. The fortified matrix was then incubated at 37 °C for 15 min. Triplicate aliquots of the fortified matrix were analyzed by LSC.
The high throughput dialysis apparatus, model HTD96b, was used (HTDialysis LLC, Gales Ferry, Connecticut). Prior to assembly, dialysis membrane strips (molecular weight cutoff of 6–8 kDa) were hydrated, and the Teflon bars were assembled according to manufacturer’s instructions, with dialysis membrane strips laid between bars creating two compartments per well. The assembled unit was locked in place in the steel base plate. A 150 µL aliquot of each fortified matrix (tissue homogenates, plasma, or DPBS) and DPBS were added to the donor and receiver side of the HTD wells in a Teflon plate, respectively, and the plate was sealed. Samples were incubated at 37 °C and rotated at 300 rpm for 7 hours. After incubation, the seal was removed, and tissue homogenates, plasma, or DPBS and dialysate from each device insert were analyzed by LSC. All protein binding determinations were performed in triplicate.
Dialysis was performed accordingly. The radioactivity concentration of the test article in the donor and receiver samples was determined by LSC (count time 60 min) for the calculation of protein binding. […] After the designated time, aliquots of the individual donor and receiver samples were removed and analyzed by LSC. The remaining sample volume was stored at −20 °C.
Dialysis was performed accordingly.
Protein binding by equilibrium dialysis:1 PercentDrugBound=(Cm-Cd)/Cm×100 2 PercentDrugUnbound=100-PercentBound where: Cd, concentration of test article in dialysate at equilibrium; Cm, Concentration of test article in matrix at equilibrium.
Recovery from equilibrium dialysis:3 Recovery(%)=(Cm×Vm)+(Cd×Vd)/(Co×Vo)×100 where: Cm, Concentration of test article in matrix at equilibrium; Cd, Concentration of test article in dialysate at equilibrium; Co, Original concentration of test article in matrix prior to loading the dialysis device; Vm, Nominal volume of the matrix at equilibrium; Vd, Nominal volume of the dialysate at equilibrium; Vo, Nominal volume of the original matrix added to the dialysis device.

[2] = tested on: primary human hepatocytes; assay: Oil-spin hepatocyte uptake assay; assay type: in vitro ADME
Method: Uptake studies were conducted using the oil-spin method described previously. Cryopreserved primary human hepatocytes (Lot KCN, BioIVT, Hicksville, NY) were thawed at 37 °C and re-suspended in InVitroGro-HT medium (BioIVT, Hicksville, NY). The suspension was centrifuged at 50 × g for 5 minutes at 4 °C, and the resulting pellet was re-suspended to 2 million cells/mL in ice-cold KHB buffer with 10% human serum (BioIVT, Hicksville, NY). The cell suspension was equilibrated to 37 °C in a water bath for 10 minutes with or without inhibitors. At the start of the uptake experiment, 37 °C KHB buffer containing test compounds with or without inhibitors was added to the hepatocyte suspension. At various time points, the uptake was terminated by removing portions of the suspension to microcentrifuge tubes containing a lower […] ammonium acetate layer and an upper mineral/silicone oil layer. For the 4 °C experiment, ice-cold buffer containing test compounds with or without inhibitors was added to ice-cold hepatocyte suspension, and the mixture was incubated on ice for the duration of the experiment. The microcentrifuge tubes were immediately centrifuged at 16,000 × g for 12 seconds. The tubes were then frozen on dry ice. The frozen hepatocyte pellets were cut from the tubes and transferred to −80 °C freezer until LC-MS/MS analysis. […]

[3] = In vitro metabolism in human hepatocytes; details: incubations with hepatocytes and microsomes of rats and humans
Method: Hepatocyte cell count was ~1.1–1.8 × 10^6 cells/mL. After 3 h, samples were quenched with 3 volumes of acetonitrile, vortex mixed, and centrifuged. The supernatant (5 µL) was analyzed by LC-MS using a Kinetex EVO C18 column (1.7 μm, 2.1 × 150 mm) at 40 °C with a flow rate of 0.4 mL/min. Mobile phase A was 20 mM ammonium acetate in water, and mobile phase B was acetonitrile. The column was initially held at 5% B for 2 min, increased to 75% B over 33 minutes, and then increased to 95% B over 3 min, where it was maintained for 3 minutes before returning to 5% B over 0.5 min for re-equilibration. Mass spectrometry data was acquired using positive ion mode and data-dependent MS^2 acquisition.

## Cc1ncsc1-c1ccc(C(C)NC(=O)C2CC(O)CN2C(=O)C(c2cc(N3CCC(CN4CCC(OC5CC(Oc6cc(N7C8CCC7CN(c7cc(-[14c]9[14cH][14cH][14cH][14cH][14c]9O)nnc7N)C8)ccn6)C5)CC4)CC3)no2)C(C)C)cc1 (stereo not drawn) [14C-A947]
[1]
  Percent Bound: 99.3%
  Percentage bound (mean), Control Plasma: 99.2%
  Percentage bound (mean), Kidney: 100%
  Percentage bound (mean), Liver: 100%
  Percentage bound (mean), Lungs: 99.5%
  Percentage bound (mean), Pancreas: 100%
  Percentage bound (mean), Plasma (4 hour): 96.8%
  Percentage bound (mean), Plasma (24 hour): 98.2%
  Percentage bound (mean), Plasma (48 hour): 97.5%
  Percentage bound (mean), Prostate Gland: 99.8%
  Percentage bound (mean), Spleen: 99.1%
  Percentage bound (mean), Thymus: 100%
[1]; rat, plasma
  Fu: 0.007
  Percentage unbound (mean), Control Plasma: 0.795%
  Percentage unbound (mean), Plasma (4 hour): 0.548%
  Percentage unbound (mean), Plasma (24 hour): 0.595%
  Percentage unbound (mean), Plasma (48 hour): 0.863%
[1]; rat, tissue homogenate
  Percentage unbound (mean), Liver: 0.0298%
  Percentage unbound (mean), Lungs: 0.09%
  Percentage unbound (mean), Pancreas: 0.0125%
  Percentage unbound (mean), Thymus: 0.0426%

## Cc1ncsc1-c1ccc(C(C)NC(=O)C2CC(O)CN2C(=O)C(c2cc(N3CCC(CN4CCC(OC5CC(Oc6cc(N7C8CCC7CN(c7cc(-c9ccccc9O)nnc7N)C8)ccn6)C5)CC4)CC3)no2)C(C)C)cc1 (stereo not drawn) [A947]
[2]; 4 °C
  Uptake by primary human hepatocytes at 4 °C: abolished
[2]; co-administration of 1 mM rifamycin SV
  Temperature-dependent uptake with rifamycin SV: largely inhibited
[3]
  Compound metabolized: < 10%
